Results from patent US11141429B2, “Composition and use of macro-minerals to lower postprandial glycemic response and reduce body weight” (American University of Beirut, priority 2016, dated 2021).

Key:
Type in all cases: in vivo, human
overweight/obese adults = assay: 12-week double-blind randomized placebo-controlled phosphorus supplementation study
Protocol: Participants: After approval of the study by the institutional review board at the American University of Beirut (Beirut, Lebanon), 63 adults aged 18 to 45 years with a BMI ≥25 kgm−2, who provided signed informed consent, were recruited from the general public using poster advertisements or direct approach. Exclusion criteria included glomerular filtration rate of 60 ml min−1 per 1.73 m^2, presence of any significant medical disease, pregnancy or lactation, regular administration of drugs that affect body weight and weight change of ≥3% within 3 months before the study. The enrollment of 40 subjects (20 per group) would detect a 10% change in weight of the placebo group, assuming the latter having a mean weight of 90 kg and s.d. of 10 kg, with 80% power and an a of 5%.
This double-blind, randomized, controlled study allocated subjects into placebo group (n=21) or phosphorus group (n=26). Participants were requested to take three tablets containing either 375 mg phosphorus or a placebo (Nutricap Labs, Farmingdale, N.Y., USA) with each main meal (breakfast, lunch and dinner) for 12 weeks. They were asked to maintain regular dietary and physical activity habits during the entire study course and avoid alcohol consumption and any strenuous exercise 24 h before their visits (at baseline, 6 weeks and 12 weeks). Assignment to intervention or control group was made by having the principle investigator (corresponding author) ask the eligible subjects to blindly draw an envelope from a large box of 100 opaque, sealed envelopes (50 for each group), each containing a 2-cm by 2-cm paper with a written code designating intervention or control. There were no detectable differences in size or weight between intervention and control envelopes. In addition, both researchers and participants were blinded for the type of supplements that were similar in size, shape, color and odor.
Subjects were asked to attend the research unit at baseline and after 6 and 12 weeks of participation. At baseline, anthropometric measurements and blood samples were collected and a subjective appetite questionnaire based on Wilson et al. Appetite assessment: simple appetite questionnaire predicts weight loss in community-dwelling adults and nursing home residents. AJCN 2005; 82:1074-1081 was completed. Participants were given a 6-week supply of the allocated supplement and were asked to attend the research unit at the end of this period. At 6 weeks, remaining tablets were collected and counted in order to assess adherence to the allocated intervention. Participants were then given a supply of the same type of supplementation for the consequent 6 weeks and were asked to complete the subjective appetite questionnaire. At 12 weeks, data were collected similar to the baseline visit, and remaining tablets were counted to assess compliance. Individuals who consumed […] of the allocated tablets were excluded. Body weight and height (without shoes) were measured to the nearest 0.1 kg and 0.1 cm, using a calibrated Seca balance (Hamburg, Germany) and a portable stadiometer, respectively. […] Serum phosphorus, creatinine, C-reactive protein, total cholesterol, high-density lipoprotein cholesterol, triglyceride and glucose levels were measured using the Vitros 350 analyzer (Ortho Clinical Diagnostics, Johnson and Johnson, Buckinghamshire, UK). […] Fasting insulin concentration was measured using the ELISA kit (Diametra Millipore, Billerica, Mass., USA). […]

healthy male subjects [1] = assay: Experiment 2: effect of pre-phosphorus ingestion (60 min before glucose) on OGTT
Protocol: (§1) The example was comprised of two experiments. Healthy male subjects were recruited to perform the experiments (Table 1). Placebo (cellulose) or P (125 mg of potassium phosphate per tablet) tablets, which had similar weight and color, were administered to subjects in a randomized order to prevent order-of-treatment effect. The consent forms were obtained from patients.
Based on data from experiment 1, peak serum P concentration (60 min) was associated with significant decrease in serum glucose and insulin levels. Thus, experiment 2 was designed to investigate whether P intake one hour prior to glucose ingestion would potentiate the effect of P on postprandial glucose and insulin levels. Eight over-night fasted subjects (age: 27.3±1.68 years; BMI: 23.5±0.97 kg/m^2) (Table 1: Experiment 2) attended 2 experimental sessions that were separated by a minimum of 3 days. Subjects were given placebo or P (500 mg) tab-lets 60 min prior to glucose ingestion. Blood was drawn at baseline (−60 min) and monitored till 240 min relative to glucose ingestion.
(§2) Serum was separated from collected blood samples and stored at −80° C. for later analysis of glucose, total P, tri-glyceride and insulin. Glucose was measured from venous samples. Insulin sensitivity was estimated by the method of Caumo A, Bergman R N, Cobelli C. Insulin sensitivity from meal tolerance tests in normal subjects: a minimal model index. J Clin. Endocrinol. Metab. 2000; 85:4396-402 and expressed as (×10^4 dl·kg^−1·min^−1·μUml^−1). The method is based on the kinetic of both glucose and insulin through coupling their rate of appearance into circulation following oral glucose ingestion. It is based on simple area under the curve type of calculation and was validated in normal subjects in whom their calculated insulin sensitivity was strongly correlated to that of frequently […] sampled IV glucose test (FSIGT). In addition, index of insulin sensitivity was calculated using the composite equation proposed by Matsuda M, DeFronzo R A. Insulin sensitivity indices obtained from oral glucose tolerance testing: comparison with the euglycemic insulin clamp. Diabetes Care. 1999; 22 (9):1462-7.
(§3) Data are presented as means±SEM. Paired t-tests were used to compare between treatments and to detect the difference from baseline within each treatment. Repeated Measure ANOVA was run to test the effect of treatment groups over time on each of the dependent variables (P, Glucose and insulin). The level of significance was fixed at P <0.05.

healthy male subjects [2] = assay: Experiment 1: effect of phosphorus ingestion on oral glucose tolerance test (OGTT)
Protocol: as §1
Seven overnight fasted subjects (age (mean±SEM): 23.2±1.83 years; BMI: 22.65±0.82 kg/m2) (Table 1: Experiment 1) were asked to attend 3 experimental sessions that were separated by a minimum of 3 days. Sessions included the consumption of either 500 mg of P (4 tablets), a glucose solution (75 g glucose) with 4 Placebo tablets, or a glucose solution (75 g glucose) with 500 mg P. All were ingested with 250 ml of cold water. Blood was withdrawn at base-line and monitored till 240 min (min) after consumption.
as §2, §3

lean male subjects = assay: Postprandial energy expenditure after high carbohydrate meal with or without P (ventilated hood); conditions: 500 Kcal high carbohydrate meal with 500 mg of P
Protocol: The objective was to determine the effect of phosphorus (P) ingestion with high carbohydrate meal on postprandial energy expenditure. P ingestion increases postprandial thermogenesis of the subjects.
A cross over study was conducted on six lean male subjects. Subjects received a 500 Kcal high carbohydrate meal (CHO: 65% E; Fat: 31% E; Protein: 4% E) with (500 mg of P) or without P. Energy expenditure was measured at baseline and at 30 minute intervals for 4 hours following meal ingestion using a ventilated hood and canopy system COSMED QUARK CPET unit.

[3] = test system: subjects (unrestrained eaters, stable body weight); assay: Ad libitum energy intake at subsequent meal after preloads with or without phosphorus; conditions: for Energy intake (ad libitum) at subsequent meal +P: lunch 80 min after preload, mean ± s.d.
Protocol: A preliminary set of experiments was conducted to investigate the effect of increased phosphorus content of a preload solution on subsequent food intake. The effect of water, sucrose (50 g), fructose (40 g fructose plus 10 g glucose) or glucose (50 g) preloads was examined with or without the addition of 500 mg of phosphorus (mixture of potassium and sodium phosphate). This work was approved by the Institutional Review Board of the American University of Beirut and written informed consent was obtained from all subjects. In brief, participants who had stable body weight for the last 3 months and were unrest-rained eaters as assessed by the three-factor eating questionnaire were selected. All subjects were regular breakfast consumers and were asked to maintain their regular dietary and physical activity habits throughout the course of the example. Subjects were asked to avoid alcohol consumption, as well as any unusual strenuous exercise 24 h before the example. After a minimum of a 12-h fast, they consumed a standard breakfast (440 kcal) 4 h before presenting for the example. Participants chose a time between 1100 and 1400 to be convenient to perform the test; thereafter, they were asked to arrive at the same time on the same day of the week for the second study session. Thus, each experiment used a within-subject design, wherein each participant served as his or her own control.
In each experiment, two chilled preloads (with or without added phosphorus) were offered in a blind randomized order so as to control for the order-of-treatment effect. Each subject presented for two study days separated by a minimum of 1 week. […] At 80 min after the preload, an ad libitum lunch, consisting of standard pizza and water, was offered. Subjects were asked to eat freely until they felt ‘comfortably full’; both food and water intakes were measured. Water intake was measured by weight (g) and food or energy intake (kcal) was obtained from the overall weight of pizza consumed.

[4] = Experiment 2 (n = 8), 500 mg P 60 min prior to 75 g glucose, mean ± SEM

With [P] [Phosphorus, phosphorus] the “Change in BMI from baseline” value (overweight/obese adults; 375 mg phosphorus with each main meal, 12 weeks, 95% CI −0.59 to 0.12, P=0.01 vs placebo) was −0.24 kgm−2, the “Decrease in body weight from baseline” value (overweight/obese adults; 375 mg phosphorus with each main meal, 12 weeks, 95% CI −1.69 to 0.40, P=0.01 vs placebo) was 0.65 kg and the “Reduction in waist circumference from baseline” value (overweight/obese adults; 375 mg phosphorus with each main meal, 12 weeks, 95% CI −4.90 to −2.33) was 3.62 cm. The “Changes in subjective appetite scores (appetite, quantity of food to reach fullness, taste of food, number of snacks) vs placebo” value (overweight/obese adults; baseline to 12 weeks) was “significantly reduced”, the Side effects (overweight/obese adults; over the experimental period (12 weeks)) was “No side effects were reported” and the “Magnitude of insulin increase vs placebo preload” value (healthy male subjects [1]; 500 mg P preload 60 min before 75 g glucose) was “modestly lower”. For the same compound, the “Serum P levels following P ingestion” value (healthy male subjects [1]; 500 mg P preload 60 min before glucose, time 0 and 15 min, then returned to baseline) was “increased significantly”, the “Insulin sensitivity [29]” value (healthy male subjects [1]; [4]) was 18.39 ± 3.28 ×10^4 dl·kg^−1·min^−1·μUml^−1 and the “Insulin sensitivity index [30]” value (healthy male subjects [1]; [4]) was 8.88 ± 0.78. The Postprandial insulin concentration (healthy male subjects [2]; 500 mg P alone) was “did not alter postprandial insulin concentration”, the “Postprandial serum P” value (healthy male subjects [2]; 500 mg P alone) was “increased serum P significantly” and the “Decrease in postprandial serum glucose concentration” value (healthy male subjects [2]; 500 mg P alone, during the experimental session (240 min), believed to be the result of fasting) was “around 5 mg/dl”. The “Insulin sensitivity [29]” value (healthy male subjects [2]; Experiment 1 (n = 7), 500 mg P co-ingested with 75 g glucose, mean ± SEM, Caumo et al. formula) was 20.22 ± 6.65 ×10^4 dl·kg^−1·min^−1·μUml^−1, the “Insulin sensitivity index [30]” value (healthy male subjects [2]; Experiment 1 (n = 7), 500 mg P co-ingested with 75 g glucose, mean ± SEM, Matsuda composite equation) was 7.00 ± 1.06 and the “Insulin levels vs glucose treatment” value (healthy male subjects [2]; G+P (75 g glucose + 500 mg P), time 60 min, P=0.002) was “significantly lower”. For the same compound, the “Magnitude of increase in postprandial serum glucose vs glucose treatment” value (healthy male subjects [2]; G+P (75 g glucose + 500 mg P), time 60 min, P=0.016) was “significantly lower”, the “Postprandial energy expenditure vs placebo” value (lean male subjects; 4 hours, p=0.007) was “significantly higher” and the “Fat oxidation (%)” value (lean male subjects; p=0.022) was “significant rise”. The “Carbohydrate oxidation (%)” value (lean male subjects; p=0.023) was “decreased”, the “Energy intake (ad libitum) at subsequent meal +P” value ([3]; Fructose (40 g fructose plus 10 g glucose) preload with 500 mg added phosphorus) was 676 ± 404 kcal and the “Energy intake (ad libitum) at subsequent meal +P” value ([3]; Glucose (50 g) preload with 500 mg added phosphorus) was 652 ± 291 kcal. For the same compound, the “Energy intake (ad libitum) at subsequent meal +P” value ([3]; Sucrose (50 g) preload with 500 mg added phosphorus) was 532 ± 341 kcal, the “Energy intake (ad libitum) at subsequent meal +P” value ([3]; Water preload with 500 mg added phosphorus) was 1119 ± 210 kcal and the “Reduction in energy intake at the subsequent meal” value (shortened to “Reduction in energy intake”) ([3]; phosphorus added to fructose preload) was 35%. For the same compound, the “Reduction in energy intake” value ([3]; phosphorus added to glucose preload) was 25%, the “Reduction in energy intake” value ([3]; phosphorus added to sucrose preload) was 33% and the “Reduction in energy intake” value ([3]; phosphorus added to water preload) was 27%.
